These results are taken from patent US12678446B2 (PFIZER INC., priority 2020, dated 2026).

One may read the EC50 as the concentration needed to bring the measured effect to its halfway point. The term CC50 denotes the concentration that lowers cell viability or growth by half.

Series [1] has as its system RSV (RSV A2 ECACC, 0709161v). In words: RSV plaque reduction assay. The series is classed as cell-based, respiratory syncytial virus. The settings on record: human respiratory syncytial virus, HepG2, read-out: RSV A2 Plaque EC50, RSV A2 in Hep-G2 cells; mean of at least two experiments unless noted (n = 1). Put shortly: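 Eight-point compound dilutions were premixed with RSV A2 (100 PFU/well) and applied to confluent Hep-G2 cells for 2 h, followed by a 2-day incubation at 37° C. under compound-containing 0.8% CMC overlay. EC50 comes from immunostained plaque counts relative to untreated virus wells, averaged over ≥2 runs.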
Background: Plaque reduction counts the foci of infection that form in a cell layer.

A short description of series [2]: cell toxicity CC50. The series is classed as cell-based. As to conditions: human; Hep-G2 cells; mean of at least two experiments; read-out: Cell Cytotoxicity CC50.

Consider `CCc1ccc(-c2nn3c(c2C(=O)N[C@H]2N=C(c4ccccc4)c4cccc(F)c4NC2=O)O[C@H](C)CC3)c(C)n1` [Example 66, (5R)-2-(6-Ethyl-2-methyl-3-pyridyl)-N-[(3S)-9-fluoro-2-oxo-5-phenyl-1,3-dihydro-1,4-benzodiazepin-3-yl]-5-methyl-6,7-dihydro-5H-pyrazolo[5,1-b][1,3]oxazine-3-carboxamide], for which, in series [1], the 50% effective concentration (EC50) stood at 60 nM. Moreover, in series [2], the CC50 was over 25000 nM.

Turning to `O=C(N[C@H]1N=C(c2ccccc2)c2ccccc2NC1=O)c1nn2c(c1-c1ccccc1F)OCCC2` [Example 36, 3-(2-Fluorophenyl)-N-[(3S)-2-oxo-5-phenyl-1,3-dihydro-1,4-benzodiazepin-3-yl]-6,7-dihydro-5H-pyrazolo[5,1-b][1,3]oxazine-2-carboxamide], the EC50 in series [1] came out at 444 nM. In addition, the CC50 in series [2] was over 25000 nM.

For `C[C@@H]1CCn2nc(-c3cncc(Cl)c3)c(C(=O)N[C@H]3N=C(c4ccccc4)c4ccccc4NC3=O)c2O1` [Example 46, (5R)-2-(5-Chloropyridin-3-yl)-5-methyl-N-[(3S)-2-oxo-5-phenyl-1,3-dihydro-1,4-benzodiazepin-3-yl]-6,7-dihydro-5H-pyrazolo[5,1-b][1,3]oxazine-3-carboxamide], the 50% effective concentration (EC50) in series [1] is 119 nM. The cytotoxic concentration (CC50) in series [2] is over 25000 nM.

For `NC(=O)c1ccc(-c2nn3c(c2C(=O)N[C@H]2N=C(c4ccccc4)c4cccc(F)c4NC2=O)OCCC3)c(F)c1` [Example 142, 2-(4-Carbamoyl-2-fluorophenyl)-N-[(3S)-9-fluoro-2-oxo-5-phenyl-1,3-dihydro-1,4-benzodiazepin-3-yl]-6,7-dihydro-5H-pyrazolo[5,1-b][1,3]oxazine-3-carboxamide], the EC50 in series [1] was determined as 282 nM. Also, in series [2], the CC50 is over 25000 nM.

With `C[C@@H]1CCn2nc(C3CCN(S(C)(=O)=O)CC3)c(C(=O)N[C@H]3N=C(c4ccccc4)c4ccccc4NC3=O)c2O1` [Example 162, (5R)-5-Methyl-2-(1-methylsulfonylpiperi-din-4-yl)-N-[(3S)-2-oxo-5-phenyl-1,3-dihydro-1,4-benzodiazepin-3-yl]-6,7-dihydro-5H-pyrazolo[5,1-b][1,3]oxazine-3-carboxamide], the half-maximal effective concentration (EC50) in series [1] was 166 nM. Further, the CC50 in series [2] was over 25000 nM.

Take `O=C(N[C@H]1N=C(c2ccccc2)c2cccc(F)c2NC1=O)c1c(-c2ccncc2F)nn2c1OCCC2` [Example 80, N-[(3S)-9-fluoro-2-oxo-5-phenyl-1,3-dihydro-1,4-benzodiazepin-3-yl]-2-(3-fluoropyridin-4-yl)-6,7-dihydro-5H-pyrazolo[5,1-b][1,3]oxazine-3-carboxamide]: the concentration for a half-maximal effect (EC50) in series [1] is 64 nM. In series [2], the 50% cytotoxic concentration (CC50) was over 25000 nM.

For `C[C@@H]1CCn2nc(-c3ccoc3)c(C(=O)N[C@H]3N=C(c4ccccc4)c4cccc(F)c4NC3=O)c2O1` [Example 61, (5R)-N-[(3S)-9-fluoro-2-oxo-5-phenyl-1,3-dihydro-1,4-benzodiazepin-3-yl]-2-(3-furyl)-5-methyl-6,7-dihydro-5H-pyrazolo[5,1-b][1,3]oxazine-3-carboxamide], the concentration giving a half-maximal response (EC50) in series [1] stood at 161 nM. Besides, the 50% cytotoxic concentration (CC50) in series [2] is over 25000 nM.

In the case of `C[C@@H]1CCn2nc(C3CCN(S(C)(=O)=O)CC3)c(C(=O)N[C@H]3N=C(c4ccccc4)c4cccc(F)c4NC3=O)c2O1` [Example 161, (5R)-N-[(3S)-9-fluoro-2-oxo-5-phenyl-1,3-dihydro-1,4-benzodiazepin-3-yl]-5-methyl-2-(1-methylsulfonylpiperi-din-4-yl)-6,7-dihydro-5H-pyrazolo[5,1-b][1,3]oxazine-3-carboxamide], the half-maximal effective concentration (EC50) in series [1] was found to be 54 nM. Further, the CC50 in series [2] is over 25000 nM.

`C[C@@H]1CCn2nc(-c3cnn(C)c3)c(C(=O)N[C@H]3N=C(c4ccccc4)c4cccc(F)c4NC3=O)c2O1` [Example 98, (5R)-N-[(3S)-9-fluoro-2-oxo-5-phenyl-1,3-dihydro-1,4-benzodiazepin-3-yl]-5-methyl-2-(1-methylpyrazol-4-yl)-6,7-dihydro-5H-pyrazolo[5,1-b][1,3]oxazine-3-carboxamide]: the EC50 in series [1] was determined as 80 nM. Also, in series [2], the 50% cytotoxic concentration (CC50) is over 25000 nM.

On to `CC1Cn2nc(-c3ccccc3F)c(C(=O)N[C@H]3N=C(c4ccccc4)c4cccc(F)c4NC3=O)c2O1` (stereo in doubt) [Example 163, (2S)-N-[(3S)-9-fluoro-2-oxo-5-phenyl-1,3-dihydro-1,4-benzodiazepin-3-yl]-6-(2-fluorophenyl)-2-methyl-2,3-dihydropyrazolo[5,1-b][1,3]oxazole-7-carboxamide], for which the EC50 in series [1] was found to be 76 nM. The CC50 in series [2] is over 25000 nM.

`C[C@@H]1CCn2nc(-c3ccc(F)nc3N3C[C@@H]4C[C@H]3CO4)c(C(=O)N[C@H]3N=C(c4ccccc4)c4cccc(F)c4NC3=O)c2O1` (single isomer, unassigned) [Example 89]: the EC50 in series [1] is 122 nM. Also, in series [2], the CC50 is over 25000 nM.

With `CN(C)CC1COc2c(C(=O)N[C@H]3N=C(c4ccccc4)c4cccc(F)c4NC3=O)c(-c3ccccc3F)nn2C1` (mixture of isomers) [Example 171, 6-[(Dimethylamino)methyl]-N-[(3S)-9-fluoro-2-oxo-5-phenyl-1,3-dihydro-1,4-benzodiazepin-3-yl]-2-(2-fluorophenyl)-6,7-dihydro-5H-pyrazolo[5,1-b][1,3]oxazine-3-carboxamide], in series [1], the half-maximal effective concentration (EC50) amounted to 59 nM. Moreover, the 50% cytotoxic concentration (CC50) in series [2] is over 25000 nM.

`C[C@@H]1CCn2nc(-c3ccccc3F)c(C(=O)N[C@H]3N=C(c4ccccc4)c4ccccc4NC3=O)c2O1` [Example 24, (5R)-2-(2-Fluorophenyl)-5-methyl-N-[(3S)-2-oxo-5-phenyl-1,3-dihydro-1,4-benzodiazepin-3-yl]-6,7-dihydro-5H-pyrazolo[5,1-b][1,3]oxazine-3-carboxamide]: the half-maximal effective concentration (EC50) in series [1] is 77 nM. In series [2], the cytotoxic concentration (CC50) is over 25000 nM.

Turning to `O=C(N[C@H]1N=C(c2ccccc2)c2ccccc2NC1=O)c1nn2c(c1-c1ccc(NC3CC3)nc1F)OCCC2` [Example 38, 3-[6-(Cyclopropylamino)-2-fluoropyridin-3-yl]-N-[(3S)-2-oxo-5-phenyl-1,3-dihydro-1,4-benzodiazepin-3-yl]-6,7-dihydro-5H-pyrazolo[5,1-b][1,3]oxazine-2-carboxamide], in series [1], the concentration for a half-maximal effect (EC50) amounted to 189 nM. Also, the cytotoxic concentration (CC50) in series [2] was over 25000 nM.

`CCN(CC)Cc1ccc(-c2nn3c(c2C(=O)N[C@H]2N=C(c4ccccc4)c4cccc(F)c4NC2=O)OCCC3)c(F)c1` [Example 102, 2-[4-(Diethylaminomethyl)-2-fluorophenyl]-N-[(3S)-9-fluoro-2-oxo-5-phenyl-1,3-dihydro-1,4-benzodiazepin-3-yl]-6,7-dihydro-5H-pyrazolo[5,1-b][1,3]oxazine-3-carboxamide]: the EC50 in series [1] was 135 nM. The 50% cytotoxic concentration (CC50) in series [2] is over 25000 nM.

Consider `CC(C)C1CCn2nc(-c3ccccc3F)c(C(=O)N[C@H]3N=C(c4ccccc4)c4cccc(F)c4NC3=O)c2O1` (stereo partly drawn) [Example 8, N-[(3S)-9-fluoro-2-oxo-5-phenyl-2,3-dihydro-1H-1,4-benzodiazepin-3-yl]-2-(2-fluorophenyl)-5-(propan-2-yl)-5H,6H,7H-pyrazolo[3,2-b][1,3]oxazine-3-carboxamide], for which the EC50 in series [1] was 37 nM. Besides, in series [2], the 50% cytotoxic concentration (CC50) was over 25000 nM.

As to `O=C(N[C@H]1N=C(c2ccccc2)c2cccc(F)c2NC1=O)c1c(-c2ccc(C3CC3)nc2)nn2c1OCCC2` [Example 18, 2-(6-Cyclopropylpyridin-3-yl)-N-[(3S)-9-fluoro-2-oxo-5-phenyl-1,3-dihydro-1,4-benzodiazepin-3-yl]-6,7-dihydro-5H-pyrazolo[5,1-b][1,3]oxazine-3-carboxamide], the concentration for a half-maximal effect (EC50) in series [1] turned out to be 96 nM. Also, in series [2], the CC50 was over 25000 nM.

For the compound `C[C@@H]1CCn2nc(-c3ccc(S(C)(=O)=O)cc3F)c(C(=O)N[C@H]3N=C(c4ccccc4)c4ccccc4NC3=O)c2O1` [Example 141, (5R)-2-(2-Fluoro-4-methylsulfonylphenyl)-5-methyl-N-[(3S)-2-oxo-5-phenyl-1,3-dihydro-1,4-benzodiazepin-3-yl]-6,7-dihydro-5H-pyrazolo[5,1-b][1,3]oxazine-3-carboxamide], in series [1], the EC50 came out at 20 nM. Moreover, the CC50 in series [2] was over 25000 nM.

Turning to `COC1COc2c(C(=O)N[C@H]3N=C(c4ccccc4)c4cccc(F)c4NC3=O)c(-c3ccccc3F)nn2C1` (stereo partly drawn) [Example 175, 2-(2-Fluorophenyl)-6-methoxy-N-[(3S)-9-fluoro-2-oxo-5-phenyl-1,3-dihydro-1,4-benzodiazepin-3-yl]-6,7-dihydro-5H-pyrazolo[5,1-b][1,3]oxazine-3-carboxamide], the EC50 in series [1] worked out at 61 nM. The 50% cytotoxic concentration (CC50) in series [2] was over 25000 nM.

Consider `CCc1ccc(-c2nn3c(c2C(=O)N[C@H]2N=C(c4ccccc4)c4ccccc4NC2=O)O[C@H](C)CC3)c(F)c1` [Example 54], for which the concentration giving a half-maximal response (EC50) in series [1] amounted to 15 nM. The CC50 in series [2] is over 25000 nM.

As to `CN(C)Cc1ccc(-c2nn3c(c2C(=O)N[C@H]2N=C(c4ccccc4)c4cccc(F)c4NC2=O)OCCC3)c(F)c1` [Example 100], in series [1], the EC50 is 75 nM. Further, the 50% cytotoxic concentration (CC50) in series [2] was over 25000 nM.

As for `COc1cc(-c2nn3c(c2C(=O)N[C@H]2N=C(c4ccccc4)c4ccccc4NC2=O)O[C@H](C)CC3)ccn1` [Example 49, (5R)-2-(2-Methoxypyridin-4-yl)-5-methyl-N-[(3S)-2-oxo-5-phenyl-1,3-dihydro-1,4-benzodiazepin-3-yl]-6,7-dihydro-5H-pyrazolo[5,1-b][1,3]oxazine-3-carboxamide], the EC50 in series [1] came out at 243 nM. The CC50 in series [2] was over 25000 nM.

Take `O=C(N[C@H]1N=C(c2ccccc2)c2ccccc2NC1=O)c1c(-c2c(F)cccc2F)nn2c1OC(CO)CC2` (single isomer, unassigned) [Example 188-1, (5R*)-2-(2,6-Difluorophenyl)-5-(hydroxymethyl)-N-[(3S)-2-oxo-5-phenyl-1,3-dihydro-1,4-benzodiazepin-3-yl]-6,7-dihydro-5H-pyrazolo[5,1-b][1,3]oxazine-3-carboxamide]: the concentration giving a half-maximal response (EC50) in series [1] amounted to 141 nM. The cytotoxic concentration (CC50) in series [2] is over 25000 nM.
